Values after ≈ are worked out from the molar mass of the structure shown. Where two headings read alike, the source gives them in different places.
What was measured:
Type in all cases: cell-based
[1] = system: Salmonella enteritidis Gartner; assay: Minimum Inhibitory Concentration, Salmonella enteritidis Gartner; conditions: Salmonella enterica; VI: Salmonella enteritidis Gartner
[2] = system: Shigella flexneri Komagome; assay: Minimum Inhibitory Concentration, Shigella flexneri Komagome; conditions: III: Shigella flexneri Komagome
[3] = system: Staphylococcus aureus 209 P; assay: Minimum Inhibitory Concentration, Staphylococcus aureus 209 P; conditions: IA: Staphylococcus aureus 209 P
Proteus vulgaris = assay: Minimum Inhibitory Concentration, Proteus vulgaris; conditions: V: Proteus vulgaris
[4] = system: Klebsiella neumoniae 846 (resistant to CER); assay: Minimum Inhibitory Concentration, Klebsiella neumoniae 846 (resistant to CER); conditions: read-out: Minimum Inhibitory Concentration
Klebsiella neumoniae 806 = assay: Minimum Inhibitory Concentration, Klebsiella neumoniae 806; conditions: Klebsiella, 806, read-out: Minimum Inhibitory Concentration
[5] = system: Staphylococcus aureus (resistant to CP and PC); assay: Minimum Inhibitory Concentration, Staphylococcus aureus (resistant to CP and PC); conditions: IB: Staphylococcus aureus (resistant to CP and PC)
[6] = system: Escherichia coli 609 (resistant to CER); assay: Minimum Inhibitory Concentration, Escherichia coli 609 (resistant to CER); conditions: read-out: Minimum Inhibitory Concentration
Escherichia coli NIHJ = assay: Minimum Inhibitory Concentration, Escherichia coli NIHJ; conditions: IIA: Escherichia coli NIHJ
[7] = IIB: Escherichia coli 609 (resistant to CER)

Row | SMILES | MIC [1] | MIC [2] | MIC [3] | MIC (Proteus vulgaris) | MIC [4] | MIC (Klebsiella neumoniae 806) | MIC [5] | MIC [6, 7] | MIC (Escherichia coli NIHJ) | MIC ([6]; Escherichia coli)
1 | CCS(=O)(=O)CC(=O)N[C@]1(OC)C(=O)N2C(C(=O)O)=C(CSc3nnnn3C)CS[C@@H]21 [C2 H5 SO2 / drawing 6, 7β-ethylsulfonylacetamido-7α-methoxy-3-(1-methyl-1H-tetrazol-5-yl)thiomethyl-3-cephem-4-carboxylic acid] | 0.8 µg/mL (≈ 1.62 µM) | 1.5 µg/mL (≈ 3.05 µM) |  |  |  |  |  |  |  | 
2 | CO[C@@]1(NC(=O)CS(C)(=O)=O)C(=O)N2C(C(=O)O)=C(CSc3nnnn3C)CS[C@@H]21 [CH3 SO2 / drawing 6, 7β-methylsulfonylacetamido-7α-methoxy-3-(1-methyl-1H-tetrazol-5-yl)thiomethyl-3-cephem-4-carboxylic acid] |  | 1.5 µg/mL (≈ 3.13 µM) |  |  |  |  |  |  |  | 
3 | CO[C@@]1(NC(=O)CSCCO)C(=O)N2C(C(=O)O)=C(CSc3nnnn3C)CS[C@@H]21 [HOCH2 CH2 S / drawing 6, 7β-(2-hydroxyethylthio)acetamido-7α-methoxy-3-(1-methyl-1H-tetrazol-5-yl)thiomethyl-3-cephem-4-carboxylic acid] | 0.8 µg/mL (≈ 1.68 µM) | 1.5 µg/mL (≈ 3.15 µM) | 0.8 µg/mL (≈ 1.68 µM) | 3.1 µg/mL (≈ 6.5 µM) | 200 µg/mL (≈ 420 µM) |  |  |  |  | 
4 | CO[C@@]1(NC(=O)CSCN=[N+]=[N-])C(=O)N2C(C(=O)O)=C(COC(C)=O)CS[C@@H]21 [N3 CH2 S / OCOCH3, 3-acetoxymethyl-7β-azidomethylthioacetamido-7α-methoxy-3-cephem-4-carboxylic acid] |  | 6.2 µg/mL (≈ 14.4 µM) |  |  | > 200 µg/mL | 6.2 µg/mL (≈ 14.4 µM) |  |  |  | 
5 | CO[C@@]1(NC(=O)CSCN=[N+]=[N-])C(=O)N2C(C(=O)O)=C(COC(N)=O)CS[C@@H]21 [N3 CH2 S / OCONH2, 7β-azidomethylthioacetamido-3-carbamoyloxymethyl-7α-methoxy-3-cephem-4-carboxylic acid] |  | 3.1 µg/mL (≈ 7.17 µM) | 0.2 µg/mL (≈ 0.462 µM) |  | > 400 µg/mL |  |  |  |  | 
6 | CO[C@@]1(NC(=O)CSCN=[N+]=[N-])C(=O)N2C(C(=O)O)=C(CSc3nnnn3C)CS[C@@H]21 [N3 CH2 S / drawing 10, 7β-azidomethylthioacetamido-7α-methoxy-3-(1-methyl-1H-tetrazol-5-yl)thiomethyl-3-cephem-4-carboxylic acid] | 0.8 µg/mL (≈ 1.64 µM) | 1.5 µg/mL (≈ 3.08 µM) | 0.4 µg/mL (≈ 0.82 µM) |  | > 200 µg/mL |  | 0.4 µg/mL (≈ 0.82 µM) |  |  | 
7 | CO[C@@]1(NC(=O)CS(=O)(=O)CCC#N)C(=O)N2C(C(=O)O)=C(CSc3nnnn3C)CS[C@@H]21 [NC(CH2)2 SO2 / drawing 6, 7β-cyanoethylsulfonyl-acetamido-7α-methoxy-3-(1-methyl-1H-tetrazol-5-yl)thiomethyl-3-cephem-4-carboxylic acid] | 0.8 µg/mL (≈ 1.55 µM) | 3.1 µg/mL (≈ 5.99 µM) |  |  | 200 µg/mL (≈ 386 µM) |  |  |  |  | 
8 | CO[C@@]1(NC(=O)CSCC#N)C(=O)N2C(C(=O)O)=C(COC(C)=O)CS[C@@H]21 [NCCH2 S / OCOCH3, 3-acetoxymethyl-7β-cyanomethylthioacetamido-7α-methoxy-3-cephem-4-carboxylic acid] |  | 3.1 µg/mL (≈ 7.46 µM) |  |  |  |  |  |  |  | 
9 | CO[C@@]1(NC(=O)CSCC#N)C(=O)N2C(C(=O)O)=C(COC(N)=O)CS[C@@H]21 [NCCH2 S / OCONH2, 3-carbamoyloxymethyl-7β-cyanomethylthioacetamido-7α-methoxy-3-cephem-4-carboxylic acid] | 1.5 µg/mL (≈ 3.6 µM) | 3.1 µg/mL (≈ 7.44 µM) |  |  |  | 3.1 µg/mL (≈ 7.44 µM) | 3.1 µg/mL (≈ 7.44 µM) | 1.5 µg/mL (≈ 3.6 µM) |  | 
10 | CO[C@@]1(NC(=O)CSCC#N)C(=O)N2C(C(=O)O)=C(CSc3nnnn3C)CS[C@@H]21 [NCCH2 S / drawing 6, 7β-cyanomethylthioacetamido-7α-methoxy-3-(1-methyl-1H-tetrazol-5-yl)thiomethyl-3-cephem-4-carboxylic acid] | 0.2 µg/mL (≈ 0.424 µM) | 0.8 µg/mL (≈ 1.7 µM) | 0.2 µg/mL (≈ 0.424 µM) | 1.5 µg/mL (≈ 3.18 µM) |  | 0.8 µg/mL (≈ 1.7 µM) |  |  |  | 
11 | CO[C@@]1(NC(=O)C[n+]2cc([O-])on2)C(=O)N2C(C(=O)O)=C(CSc3nnnn3C)CS[C@@H]21 [drawing 7 / drawing 6, 7β-(sydnon-3)acetamido-7α-methoxy-3-(1-methyl-1H-tetrazol-5-yl)thiomethyl-3-cephem-4-carboxylic acid] | 0.8 µg/mL (≈ 1.65 µM) | 1.5 µg/mL (≈ 3.1 µM) | 0.8 µg/mL (≈ 1.65 µM) |  | > 200 µg/mL |  |  |  |  | 
12 | CO[C@@]1(NC(=O)CSC(C)C#N)C(=O)N2C(C(=O)O)=C(CSc3nnnn3C)CS[C@@H]21 (stereo partly drawn) [drawing 8 / drawing 6, 7β-(1-cyanoethyl)-acetamido-7α-methoxy-3-(1-methyl-1H-tetrazol-5-yl)thiomethyl-3-cephem-4-carboxylic acid] | 0.4 µg/mL (≈ 0.824 µM) | 1.5 µg/mL (≈ 3.09 µM) | 0.4 µg/mL (≈ 0.824 µM) | 0.8 µg/mL (≈ 1.65 µM) | 400 µg/mL (≈ 824 µM) | 1.5 µg/mL (≈ 3.09 µM) | 0.8 µg/mL (≈ 1.65 µM) | 3.1 µg/mL (≈ 6.38 µM) | 1.5 µg/mL (≈ 3.09 µM) | 
13 | C#CCSCC(=O)N[C@]1(OC)C(=O)N2C(C(=O)O)=C(CSc3nnnn3C)CS[C@@H]21 [drawing 9 / drawing 10, 7β-propargylthioacetamido-7α-methoxy-3-(1-methyl-1H-tetrazol-5-yl)thiomethyl-3-cephem-4-carboxylic acid] |  | 3.1 µg/mL (≈ 6.59 µM) |  |  |  |  |  |  |  | 
14 | CO[C@@]1(NC(=O)COc2ccon2)C(=O)N2C(C(=O)O)=C(CSc3nnnn3C)CS[C@@H]21 [drawing 11 / drawing 10, 7β-(3-isoxazolyloxy)acetamido-7α-methoxy-3-(1-methyl-1H-tetrazol-5-yl)thiomethyl-3-cephem-4-carboxylic acid] |  | 3.1 µg/mL (≈ 6.41 µM) |  |  |  |  |  |  |  | 
15 | CO[C@@]1(NC(=O)CSc2ccon2)C(=O)N2C(C(=O)O)=C(CSc3nnnn3C)CS[C@@H]21 [drawing 12 / drawing 10, 7β-(3-isoxazolylthio)acetamido-7α-methoxy-3-(1-methyl-1H-tetrazol-5-yl)thiomethyl-3-cephem-4-carboxylic acid] | 0.8 µg/mL (≈ 1.6 µM) | 3.1 µg/mL (≈ 6.21 µM) | 0.2 µg/mL (≈ 0.4 µM) |  | > 400 µg/mL |  | 0.8 µg/mL (≈ 1.6 µM) |  |  | 
16 | CO[C@@]1(NC(=O)CSc2ccon2)C(=O)N2C(C(=O)O)=C(COC(C)=O)CS[C@@H]21 [drawing 13 / OCOCH3, 3-acetoxymethyl-7β-(3-isoxazolylthio)acetamido-7α-methoxy-3-cephem-4-carboxylic acid] |  | 6.2 µg/mL (≈ 14 µM) |  |  |  |  |  |  |  | 
17 | C#CCSCC(=O)N[C@]1(OC)C(=O)N2C(C(=O)O)=C(COC(C)=O)CS[C@@H]21 [drawing 14 / OCOCH3] | 6.2 µg/mL (≈ 15 µM) | 12.5 µg/mL (≈ 30.2 µM) | 1.5 µg/mL (≈ 3.62 µM) | 12.5 µg/mL (≈ 30.2 µM) | > 200 µg/mL | 12.5 µg/mL (≈ 30.2 µM) | 6.2 µg/mL (≈ 15 µM) |  |  | 12.5 µg/mL (≈ 30.2 µM)
